Reference: patent US20260125400A1, “TYK2 DEGRADERS AND USES THEREOF” (Kymera Therapeutics, Inc., priority 2023, published 2026)
Where two headings read alike, the source gives them in different places.

Molecular target: T1, TYK2 (Homo sapiens, UniProt P29597)
T1 construct: Degradation of TYK2 in cells was quantitatively measured using Meso Scale Discovery (MSD) technology; endogenous in cells; host or cells: OCI-LY10
Assay: TYK2 MSD degradation in OCI-LY10 cells
Type: cell-based
Details: 4 to 24 hours incubation; for DC50: read-out: TYK2 MSD OCI-LY10 Rel-DC50
Method in brief: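 OCI-LY10 cells were treated with 9-dose 1:3 series (top 1 to 10 μM final) for 4 to 24 hours at 37° C. Lysate TYK2 quantified by MSD sandwich immunoassay; DC50 and Dmax from four-parameter inhibitor vs. response fit.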

[1] = TYK2 degradation in OCI-LY10 cells

T1 sequence (P29597 whole entry): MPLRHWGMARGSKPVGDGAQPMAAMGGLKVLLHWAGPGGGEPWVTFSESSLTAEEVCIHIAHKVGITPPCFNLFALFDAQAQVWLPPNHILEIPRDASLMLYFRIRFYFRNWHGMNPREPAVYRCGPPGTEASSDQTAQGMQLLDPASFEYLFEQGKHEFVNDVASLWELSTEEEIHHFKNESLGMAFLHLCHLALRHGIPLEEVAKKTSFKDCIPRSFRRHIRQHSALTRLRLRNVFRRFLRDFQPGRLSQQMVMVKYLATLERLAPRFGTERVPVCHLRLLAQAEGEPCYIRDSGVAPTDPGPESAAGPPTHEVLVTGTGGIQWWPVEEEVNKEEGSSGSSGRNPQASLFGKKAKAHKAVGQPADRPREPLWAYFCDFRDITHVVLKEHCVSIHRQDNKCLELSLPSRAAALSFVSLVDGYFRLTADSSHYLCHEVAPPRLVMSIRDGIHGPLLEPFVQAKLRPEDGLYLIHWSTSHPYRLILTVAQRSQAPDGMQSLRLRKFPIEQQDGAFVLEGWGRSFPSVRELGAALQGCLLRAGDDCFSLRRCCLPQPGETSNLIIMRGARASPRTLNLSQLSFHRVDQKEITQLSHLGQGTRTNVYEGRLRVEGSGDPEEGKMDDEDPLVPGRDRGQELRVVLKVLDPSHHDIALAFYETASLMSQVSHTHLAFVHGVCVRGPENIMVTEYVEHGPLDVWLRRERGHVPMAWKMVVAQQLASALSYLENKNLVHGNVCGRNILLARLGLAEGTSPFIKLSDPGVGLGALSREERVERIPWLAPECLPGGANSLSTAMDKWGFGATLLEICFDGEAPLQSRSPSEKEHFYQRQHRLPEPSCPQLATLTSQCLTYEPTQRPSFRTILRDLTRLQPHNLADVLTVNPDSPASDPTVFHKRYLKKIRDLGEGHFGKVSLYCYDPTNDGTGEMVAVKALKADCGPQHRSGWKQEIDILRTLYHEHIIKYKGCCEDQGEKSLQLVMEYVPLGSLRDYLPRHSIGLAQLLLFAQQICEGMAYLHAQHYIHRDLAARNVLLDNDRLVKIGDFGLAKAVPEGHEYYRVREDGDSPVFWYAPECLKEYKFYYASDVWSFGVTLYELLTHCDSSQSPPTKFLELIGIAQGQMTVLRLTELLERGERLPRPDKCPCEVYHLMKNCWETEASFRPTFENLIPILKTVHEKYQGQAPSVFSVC

Row | SMILES | TYK2 MSD OCI-LY10 Dmax % [1] | DC50 [1] | TYK2 MSD OCI-LY10 Dmax % (OCI-LY10 cells) | DC50 (OCI-LY10 cells) | Dmax [1]
1 | CNc1cc(N2CCc3c(-c4cc(CN5CCN(c6ccc7c(c6F)n(C)c(=O)n7C6CCC(=O)NC6=O)CC5)ccn4)cccc32)nn2c(C(N)=O)cnc12 (stereo not shown) [I-81] | B (B (90 to >75%)) | < 1 nM |  |  | 
2 | CNc1cc(N2CCc3c(-c4ccc(OC5CCC6(CC5)CCN(C(=O)c5ccc(Cl)c(N7CCC(=O)NC7=O)c5)CC6)cn4)cccc32)nn2c(C(=O)N[C@@H]3C[C@@H]3F)cnc12 [I-75] | C (C (75 to 50%)) | < 10 nM |  |  | 
3 | CNc1cc(N2CCc3c(-c4ccc(OCC5CCN(Cc6ccc(Cl)c(C7CCC(=O)NC7=O)c6)CC5)cn4)cccc32)nn2c(C(=O)N[C@@H]3C[C@@H]3F)cnc12 (stereo partly shown) [I-425] |  |  | D (D (<50%)) | > 100 nM | 
4 | CNc1cc(N2CCc3c(CN4CCC(CN5CCC6(CCN(C(=O)c7cc(C)c(Cl)c(N8CCC(=O)NC8=O)c7)CC6)C(F)(F)C5)C(F)(F)C4)cccc32)nn2c(C(=O)N[C@@H]3CC[C@H]3OC)cnc12 (stereo partly shown) [I-1122] | A (A (>90%)) | < 1 nM |  |  | 
5 | CNc1cc(N2CCc3c(-c4ccc(CN5CCN(C6CCN(C(=O)c7cc(C)c(Cl)c(N8CCC(=O)NC8=O)c7)CC6(F)F)CC5)cn4)cccc32)nn2c(C(=O)N[C@@H]3CC[C@H]3OC)cnc12 (stereo partly shown) [I-1161] | B (B (90 to >75%)) | < 1 nM |  |  | 
6 | CNc1cc(N2CCc3c(-c4ccc(CN5CCC6(CCC(Oc7ccc(Cl)c(N8CCC(=O)NC8=O)c7)CC6)CC5)cn4)cccc32)nn2c(C(=O)N[C@@H]3C[C@@H]3F)cnc12 [I-96] | D (D (<50%)) | < 10 nM |  |  | 
7 | CNc1cc(N2CCc3c(CN4CCC(N5CCC(Oc6ccc(Cl)c(N7CCC(=O)NC7=O)c6)CC5)C(F)(F)C4)cccc32)nn2c(C(=O)N[C@@H]3C[C@@H]3F)cnc12 (stereo partly shown) [I-291] | D (D (<50%)) | > 100 nM |  |  | 
8 | CNc1cc(N2CCc3c(CN4CC[C@H](N5CCC6(CC5)CN(C(=O)c5cc(Cl)c(C)c(N7CCC(=O)NC7=O)c5)C6)C(F)(F)C4)cccc32)nn2c(C(=O)N[C@@H]3CC[C@H]3OC)cnc12 [I-1142] | A (A (>90%)) | < 1 nM |  |  | 
9 | COC1(c2cc(C)cc(-c3cn(C4CCN(CC5CCN(c6ccc(NC7CCC(=O)NC7=O)c(F)c6)CC5)CC4)c4cnc(NC(C)=O)cc34)n2)CCOC1 (stereo not shown) [I-842] | A (A (>90%)) | < 1 nM |  |  | 
10 | CNc1cc(N2CCc3c(-c4ccc(CN5CC6(CCN(C(=O)c7cnc(C)c(N8CCC(=O)NC8=O)c7)CC6)C5)cn4)cccc32)nn2c(C(=O)N[C@@H]3C[C@@H]3F)cnc12 [I-351] | B (B (90 to >75%)) | < 1 nM |  |  | 
11 | CNc1cc(N2CCc3c(-c4ncc(CN5CCC6(CCN(C(=O)c7cc(C)c(Cl)c(N8CCC(=O)NC8=O)c7)CC6)C(F)(F)C5)cn4)cccc32)nn2c(C(=O)N[C@@H]3C[C@@H]3F)cnc12 [I-799] | B (B (90 to >75%)) | < 10 nM |  |  | 
12 | CNc1cc(N2CCc3c(-c4ccc(CN5CCC(N6CCN(c7ccc8c(c7F)n(C)c(=O)n8C7CCC(=O)NC7=O)CC6)C(F)(F)C5)cn4)cccc32)nn2c(C(=O)NC3CC3F)cnc12 (stereo not shown) [I-910] | B (B (90 to >75%)) | < 10 nM |  |  | 
13 | CNc1cc(N2CCc3c(CC4CN(C5CCN(C6CCN(C(=O)c7ccc(Cl)c(N8CCC(=O)NC8=O)c7)CC6)CC5(F)F)C4)cccc32)nn2c(C(=O)N[C@@H]3C[C@@H]3F)cnc12 (stereo partly shown) [I-698] |  |  | B (B (90 to >75%)) | < 1 nM | 
14 | CNc1cc(N2CCc3c(CN4CC[C@H](N5CCC6(CCN(C(=O)c7ccc(Cl)c(N8CCC(=O)NC8=O)c7)CC6)CC5)C(F)(F)C4)cccc32)nn2c(C(=O)N[C@@H]3C[C@@H]3F)cnc12 [I-715] |  |  | B (B (90 to >75%)) | < 1 nM | 
15 | CNc1cc(N2CCc3c(CN4CCC(CN5CCC6(CC5)CCN(C(=O)c5ccc(Cl)c(N7CCC(=O)NC7=O)c5)CC6)C(F)(F)C4)cccc32)nn2c(C(=O)N[C@@H]3C[C@@H]3F)cnc12 (stereo partly shown) [I-766] |  |  | A (A (>90%)) | < 1 nM | 
16 | CNc1cc(N2CCc3c(CN4CCC(CN5CCC6(CC5)CCN(C(=O)c5ccc(Cl)c(N7CCC(=O)NC7=O)c5)CC6)C(F)(F)C4)cccc32)nn2c(C(=O)N[C@@H]3CC[C@H]3OC)cnc12 (stereo partly drawn) [I-1074, 6-(4-{[4-({9-[14-chloro-3-(2,4-dioxo-1,3-diazinan-1-yl)benzoyl]-3,9-diazaspiro[5.5]undecan-3-yl}methyl)-3,3-difluoropiperidin-1-yl]methyl}-2,3-dihydroindol-1-yl)-N-[(1R,2R)-2-methoxycyclobutyl]-8-(methylamino)imidazo[1,2-b]pyridazine-3-carboxamide] |  | < 1 nM |  |  | > 90%
17 | CNc1cc(N2CCc3c(-c4ccc(CN5CCC6(CC5)CC(COc5ccc(C7CCC(=O)NC7=O)c(Cl)c5)C6)cn4)cccc32)nn2c(C(=O)N[C@@H]3C[C@@H]3F)cnc12 (stereo partly shown) [I-460] |  |  | D (D (<50%)) | > 100 nM | 
18 | CNc1cc(N2CCc3c(-c4ccc(CN5CCC(N6CC(N7CCN(c8ccc9c(c8F)n(C)c(=O)n9C8CCC(=O)NC8=O)CC7)C6)C(F)(F)C5)cn4)cccc32)nn2c(C(=O)N[C@@H]3C[C@@H]3F)cnc12 (stereo partly shown) [I-470] |  |  | B (B (90 to >75%)) | < 1 nM | 
19 | CNc1cc(N2CCc3c(CN4CCC(N5CCC(C6CCN(C(=O)c7ccc(Cl)c(N8CCC(=O)NC8=O)c7)CC6)CC5)C(F)(F)C4)cccc32)nn2c(C(=O)N[C@@H]3CC[C@H]3OC)cnc12 (stereo partly shown) [I-1069] | A (A (>90%)) | < 1 nM |  |  | 
20 | CNc1cc(N2CCc3c(-c4ncc(CN5CC6(CCN(C(=O)c7cc(N8CCC(=O)NC8=O)c(C)cn7)CC6(F)F)C5)cc4F)cc(F)cc32)nn2c(C(=O)N[C@@H]3C[C@@H]3F)cnc12 [I-971] | B (B (90 to >75%)) | < 1 nM |  |  | 
21 | CNc1cc(N2CCc3c(-c4ccc(CN5CC6(CCN(C(=O)c7ccc(C)c(N8CCC(=O)NC8=O)c7)CC6(F)F)C5)cn4)cc(F)cc32)nn2c(C(=O)NC3CC3F)cnc12 (stereo not shown) [I-357] | A (A (>90%)) | < 1 nM |  |  | 
22 | CNc1cc(N2CCc3c(-c4cnc(CN5CC6(CCN(C(=O)c7ccc(Cl)c(N8CCC(=O)NC8=O)c7)CC6)C5)cn4)cccc32)nn2c(C(=O)N[C@@H]3C[C@@H]3F)cnc12 [I-466] |  |  | A (A (>90%)) | < 1 nM | 
23 | CNc1cc(N2CCc3c2cccc3C23CC(CN4CCC(N5CCC6(CCN(C(=O)c7ccc(Cl)c(N8CCC(=O)NC8=O)c7)CC6)CC5)C(F)(F)C4)(C2)C3)nn2c(C(=O)N[C@@H]3C[C@@H]3F)cnc12 (stereo partly shown) [I-807] | B (B (90 to >75%)) | < 10 nM |  |  | 
24 | CNc1cc(N2CCc3c(N4CCN(C5CCN(C6CCN(C(=O)c7ccc(Cl)c(N8CCC(=O)NC8=O)c7)CC6)CC5)CC4)cccc32)nn2c(C(=O)N[C@@H]3C[C@@H]3F)cnc12 [I-287] | D (D (<50%)) | > 100 nM |  |  | 
25 | CNc1cc(N2CCc3c(-c4ccc(CN5CC6(CCC(COc7ccc(C8CCC(=O)NC8=O)c(Cl)c7)CC6)C5)cn4)cccc32)nn2c(C(=O)N[C@@H]3C[C@@H]3F)cnc12 (stereo partly shown) [I-463] |  |  | D (D (<50%)) | > 100 nM | 
26 | CNc1cc(N2CCc3c(-c4ccc(CN5CC6(CCN(C(=O)c7cc(C)c(Cl)c(N8CCC(=O)NC8=O)c7)CC6(F)F)C5)cn4)cccc32)nn2c(C(=O)NC(C)c3ncco3)cnc12 (stereo not shown) [I-1072] | B (B (90 to >75%)) | < 10 nM |  |  | 
